The structures appear in SMILES notation. pIC50: −log10 of the molar value. Counter-ions that a name gives are not always drawn.

One assay relates to saos-2 cells. Nature of the assay: Anticalcification efficacy in saos-2 cells (osteogenic medium, Alizarin Red staining). In kind it is cell-based. The settings on record: Homo sapiens, 168 h, test compound 1 µM, 7 days osteogenic medium, Alizarin Red absorbance 540 nm, read-out: calcification inhibition. The protocol:
To confirm the inhibitory effect of calcification in saos-2 cells in which calcification is induced by overexpression of TNAP, saos-2 cells were cultured in a culture medium in an incubator at 37°C, 95% humidity, and 5% CO2. RPMI-1640 (Corning) supplemented with 10% FBS (Gibco) and 1% Pen/Strep (Gibco) was used as the culture medium.
Saos-2 cells were seeded in a 48-well plate at the density of 1.5 x 10^4 cells/well and used in the experiment when they reached 80-90% confluence after stabilization for 2 days.
After saos-2 cells were cultured in a 48-well plate to 80-90% confluence, the culture medium was removed and replaced with an osteogenic medium (OM). DMEM (Gibco) containing 10% FBS, 1% Pen/Strep, 100 nM dexamethasone (Sigma), 10 mM β-glycerophosphate (Sigma), and 0.05 mM L-ascorbic acid (Sigma) was used as the OM. Osteogenic differentiation of saos-2 cells by OM was induced for 7 days, and OM was replaced every 2 to 3 days.
When inducing calcification through OM in saos-2 cells, the cells were treated with concentrations of […] of the TNAP inhibitor test compounds with the OM replacement cycle, except for the control group (OM).
After 7 days of OM induction, the medium was removed from each well and the plate was washed twice with PBS. Cells were fixed with 4% paraformaldehyde for 1 hour, then the fixative was removed and washed twice with deionized water (DW). ARS solution was added to the plate and shaken for 1 hour to stain the cells. When the cells were sufficiently stained red, the dye was removed, the cells were washed carefully with DW, dried, and then photographs were taken of the stained cells. The red-stained area represents calcification induced by OM, and the degree of calcification was determined based on the degree of redness. To quantify this, 10% cetylpyridinium chloride was dispensed into the wells and the dye was dissolved. The dye-dissolved solution was transferred to each well of a 96 well plate and absorbance was measured at 540 nm.
The degree of decrease in the measured absorbance by the test compounds based on the absorbance for OM was evaluated as the degree of inhibition of calcification.

The next assay deals with T1, TNAP (Homo sapiens, UniProt P05186).
T1 sequence (P05186 18-502 limits assumed): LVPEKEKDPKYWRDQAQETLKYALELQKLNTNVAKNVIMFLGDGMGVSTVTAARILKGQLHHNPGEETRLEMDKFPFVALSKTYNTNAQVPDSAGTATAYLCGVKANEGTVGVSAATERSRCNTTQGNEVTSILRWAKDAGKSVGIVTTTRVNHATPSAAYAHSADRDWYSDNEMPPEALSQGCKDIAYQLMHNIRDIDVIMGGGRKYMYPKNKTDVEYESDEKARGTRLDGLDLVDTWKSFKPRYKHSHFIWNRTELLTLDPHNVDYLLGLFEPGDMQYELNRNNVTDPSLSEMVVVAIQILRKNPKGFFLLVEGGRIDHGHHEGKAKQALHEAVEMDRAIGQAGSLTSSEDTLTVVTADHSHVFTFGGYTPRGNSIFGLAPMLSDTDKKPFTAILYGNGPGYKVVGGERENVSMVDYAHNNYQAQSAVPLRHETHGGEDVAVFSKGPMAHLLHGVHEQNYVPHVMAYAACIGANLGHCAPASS
Nature of the assay: TNAP inhibitory activity, colorimetric assay (alkaline phosphatase assay kit ab83369, pNPP substrate). It counts as biochemical. The settings on record: TNAP enzyme, 2 hours at room temperature, absorbance 405 nm. The protocol: The TNAP inhibitory activity of the compounds according to the present invention was analyzed by colorimetric assay.
The experiments were performed according to the protocol of the alkaline phosphatase assay kit ab83369.
TNAP enzyme at a concentration of 0.2 ng/µl was dispensed into a 96-well plate (Costar) (10 µl/well), to which the 10-fold diluted test substance was added (15 µl/well). The plate was incubated at room temperature, shielded from light, for 10 minutes to allow the enzyme and compound to act. After incubation, 125 µl of 1 mM substrate (pNPP) was added to each well of the plate, and the plate was incubated for 2 hours at room temperature in a darkened state to allow the enzyme, substrate, and test compound to act. Absorbance was measured at 405 nm using a microplate reader (Tecan spark), and IC50 was calculated using GraphPad Prism 9. The amount of p-nitrophenol produced was calculated through the absorbance, and the degree of TNAP activity inhibition was evaluated through the degree of inhibition of p-nitrophenol production, and the concentration of the compound that inhibited 50% was calculated as the IC50 value.

`COc1ccc(-c2cc(F)c(O)c(F)c2)cc1S(=O)(=O)Nc1cnc2c(c1)C(=O)NCC2` [Example 46, 3',5'-difluoro-4'-hydroxy-4-methoxy-N-(5-oxo-5,6,7,8-tetrahydro-1,6-naphthyridine-3-yl)-[1,1'-biphenyl]-3-sulfonamide]: the inhibition (in general, how much of the control response was suppressed) at 1 µM with saos-2 cells is at least 50%. Further, at TNAP, the pIC50 (as a rule, the IC50 on a negative log10 scale, so that one unit is a factor of ten) is 6.00 to 7.00.

Take `COc1ccc(-c2cnn(CC(=O)OC(C)(C)C)c2)cc1S(=O)(=O)Nc1cnc2c(c1)C(=O)NCC2` [Example 47, tert-butyl 2-(4-(4-methoxy-3-(N-(5-oxo-5,6,7,8-tetrahydro-1,6-naphthyridine-3-yl)sulfamoyl)phenyl)-1H-pyrazole-1-yl)acetate]: the inhibition at 1 µM with saos-2 cells was at least 50%. On TNAP, this molecule showed a pIC50 of 6.00 to 7.00.

In the case of `COc1ccc(-c2cnn(CC(=O)O)c2)cc1S(=O)(=O)Nc1cnc2c(c1)C(=O)NCC2` [Example 48, 2-(4-(4-methoxy-3-(N-(5-oxo-5,6,7,8-tetrahydro-1,6-naphthyridine-3-yl)sulfamoyl)phenyl)-1H-pyrazole-1-yl)acetic acid], the inhibition at 1 µM with saos-2 cells was at least 50%. Further, the pIC50 on TNAP was 7.00 to 8.00.

As to `CCOC(=O)CCc1ccc(-c2ccc(OC)c(S(=O)(=O)Nc3cnc4c(c3)C(=O)NCC4)c2)cc1` [Example 49, ethyl 3-(4'-methoxy-3'-(N-(5-oxo-5,6,7,8-tetrahydro-1,6-naphthyridine-3-yl)sulfamoyl)-[1,1'-biphenyl]-4-yl)propanoate], in the assay with saos-2 cells, the inhibition at 1 µM was at least 50%. Moreover, at TNAP, the pIC50 was 7.00 to 8.00.

As for `COc1ccc(-c2ccc(CCC(=O)O)cc2)cc1S(=O)(=O)Nc1cnc2c(c1)C(=O)NCC2` [Example 50, 3-(4'-methoxy-3'-(N-(5-oxo-5,6,7,8-tetrahydro-1,6-naphthyridine-3-yl)sulfamoyl)-[1,1'-biphenyl]-4-yl)propanoic acid], the inhibition at 1 µM in the assay on saos-2 cells was at least 50%. At TNAP, this molecule gave a pIC50 of 7.00 to 8.00.

For the molecule `COc1ccc(C2=CCOCC2)cc1S(=O)(=O)Nc1cnc2c(c1)C(=O)NCC2` [Example 51, 5-(3,6-dihydro-2H-pyran-4-yl)-2-methoxy-N-(5-oxo-5,6,7,8-tetrahydro-1,6-naphthyridine-3-yl)benzenesulfonamide], the inhibition at 1 µM with saos-2 cells is at least 50%. In addition, the pIC50 at TNAP was 6.00 to 7.00.

Take `COc1ccc(C2=CCN(C(=O)OC(C)(C)C)CC2)cc1S(=O)(=O)Nc1cnc2c(c1)C(=O)NCC2` [Example 52, tert-butyl 4-(4-methoxy-3-(N-(5-oxo-5,6,7,8-tetrahydro-1,6-naphthyridine-3-yl)sulfamoyl)phenyl)-3,6-dihydropyridine-1(2H)-carboxylate]: in the assay on saos-2 cells, the inhibition at 1 µM is at least 50%. This molecule also had a pIC50 on TNAP of 6.00 to 7.00.

On to `COc1ccc(C2=CCNCC2)cc1S(=O)(=O)Nc1cnc2c(c1)C(=O)NCC2` [Example 53, 2-methoxy-N-(5-oxo-5,6,7,8-tetrahydro-1,6-naphthyridine-3-yl)-5-(1,2,3,6-tetrahydropyridine-4-yl)benzenesulfonamide hydrochloride], for which, in the assay on saos-2 cells, the inhibition at 1 µM lay in the range of 0 to 50%. This molecule showed a pIC50 against TNAP of 6.00 to 7.00.

As to `COc1ccc(-c2cnn(C3CCCCO3)c2)cc1S(=O)(=O)Nc1cnc2c(c1)C(=O)NCC2` (centres unmarked) [Example 54, 2-methoxy-N-(5-oxo-5,6,7,8-tetrahydro-1,6-naphthyridine-3-yl)-5-(1-(tetrahydro-2H-pyran-2-yl)-1H-pyrazole-4-yl)benzenesulfonamide], in the assay on saos-2 cells, the inhibition at 1 µM is at least 50%. The molecule further showed a negative logarithm of the IC50 (pIC50) at TNAP of 6.00 to 7.00.

Consider `COc1ccc(-c2cn[nH]c2)cc1S(=O)(=O)Nc1cnc2c(c1)C(=O)NCC2` [Example 55, 2-methoxy-N-(5-oxo-5,6,7,8-tetrahydro-1,6-naphthyridine-3-yl)-5-(1H-pyrazole-4-yl)benzenesulfonamide], for which, in the assay on saos-2 cells, the inhibition at 1 µM was at least 50%. For the same molecule, on TNAP, the pIC50 was 6.00 to 7.00.

Consider `O=C1NCCc2ncc(NS(=O)(=O)c3cc(F)ccc3Br)cc21` [Example 56, 2-bromo-5-fluoro-N-(5-oxo-5,6,7,8-tetrahydro-1,6-naphthyridine-3-yl)benzenesulfonamide], for which, in the assay on saos-2 cells, the inhibition at 1 µM was at least 50%. Moreover, the pIC50 on TNAP is 6.00 to 7.00.

Consider `COc1ccc(-c2cnn(C)c2)cc1S(=O)(=O)Nc1cnc2c(c1)C(=O)NCC2` [Example 57, 2-methoxy-5-(1-methyl-1H-pyrazole-4-yl)-N-(5-oxo-5,6,7,8-tetrahydro-1,6-naphthyridine-3-yl)benzenesulfonamide], for which, in the assay on saos-2 cells, the inhibition at 1 µM is at least 50%. On TNAP, this molecule gave a pIC50 of 6.00 to 7.00.

Consider `COc1ccc(-c2cnn(C(C)(C)C(N)=O)c2)cc1S(=O)(=O)Nc1cnc2c(c1)C(=O)NCC2` [Example 58, 2-(4-(4-methoxy-3-(N-(5-oxo-5,6,7,8-tetrahydro-1,6-naphthyridine-3-yl)sulfamoyl)phenyl)-1H-pyrazole-1-yl)-2-methylpropanamide], for which the inhibition at 1 µM in the assay on saos-2 cells lay in the range of 0 to 50%. Besides, at TNAP, the pIC50 was at most 6.00.

For the molecule `CCOC(=O)C(C)(C)n1cc(-c2ccc(OC)c(S(=O)(=O)Nc3cnc4c(c3)C(=O)NCC4)c2)cn1` [Example 59, ethyl 2-(4-(4-methoxy-3-(N-(5-oxo-5,6,7,8-tetrahydro-1,6-naphthyridine-3-yl)sulfamoyl)phenyl)-1H-pyrazole-1-yl)-2-methylpropanoate], the inhibition at 1 µM in the assay on saos-2 cells was at least 50%. Moreover, the pIC50 on TNAP is 6.00 to 7.00.

For the molecule `COc1ccc(-c2cnn(C(C)(C)C(=O)O)c2)cc1S(=O)(=O)Nc1cnc2c(c1)C(=O)NCC2` [Example 60, 2-(4-(4-methoxy-3-(N-(5-oxo-5,6,7,8-tetrahydro-1,6-naphthyridine-3-yl)sulfamoyl)phenyl)-1H-pyrazole-1-yl)-2-methylpropanoic acid], the inhibition at 1 µM in the assay with saos-2 cells was at least 50%. Moreover, the pIC50 at TNAP was 6.00 to 7.00.

Regarding `COc1ccc(C2=CCN(C(C)=O)CC2)cc1S(=O)(=O)Nc1cnc2c(c1)C(=O)NCC2` [Example 61, 5-(1-acetyl-1,2,3,6-tetrahydropyridine-4-yl)-2-methoxy-N-(5-oxo-5,6,7,8-tetrahydro-1,6-naphthyridine-3-yl)benzenesulfonamide], in the assay with saos-2 cells, the inhibition at 1 µM is at least 50%. This molecule also had a pIC50 against TNAP of 6.00 to 7.00.

For the molecule `COc1ccc(C2=CCCOC2)cc1S(=O)(=O)Nc1cnc2c(c1)C(=O)NCC2` [Example 62, 5-(5,6-dihydro-2H-pyran-3-yl)-2-methoxy-N-(5-oxo-5,6,7,8-tetrahydro-1,6-naphthyridine-3-yl)benzenesulfonamide], the inhibition at 1 µM in the assay with saos-2 cells was at least 50%. In addition, the pIC50 against TNAP is 7.00 to 8.00.

Regarding `COc1ccc(C2=CCCCC2)cc1S(=O)(=O)Nc1cnc2c(c1)C(=O)NCC2` [Example 63, 4-methoxy-N-(5-oxo-5,6,7,8-tetrahydro-1,6-naphthyridine-3-yl)-2',3',4',5'-tetrahydro-[1,1'-biphenyl]-3-sulfonamide], the inhibition at 1 µM with saos-2 cells is below 0%. Besides, the pIC50 against TNAP is 6.00 to 7.00.

For the molecule `COc1ccc(C2=CCC(F)(F)CC2)cc1S(=O)(=O)Nc1cnc2c(c1)C(=O)NCC2` [Example 64, 4',4'-difluoro-4-methoxy-N-(5-oxo-5,6,7,8-tetrahydro-1,6-naphthyridine-3-yl)-2',3',4',5'-tetrahydro-[1,1'-biphenyl]-3-sulfonamide], the inhibition at 1 µM in the assay with saos-2 cells was below 0%. On TNAP, this molecule had a pIC50 of at most 6.00.

The values are drawn from patent EP4806894A1, “TNAP INHIBITORY COMPOUND AND USE THEREOF” (Rednvia Co., Ltd., priority 2023, dated 2025).
